In patent US11590199B2, “Use of an ABC transporter peptide inhibitor” (HUNAN UNIVERSITY OF SCIENCE AND ENGINEERING, priority 2021, dated 2023):

Columns and labels:
[1] = tested on: drug-induced ABCC1-overexpressing cancer cell line KB-CV60; assay: MDR reversal study (MTT), drug-induced ABCC1-overexpressing cells; format: cell-based; conditions: chemotherapeutic drug alone, Table 4
[2] = tested on: drug-induced ABCB1-overexpressing cancer cell line KB-C2; assay: MDR reversal study (MTT), drug-induced ABCB1-overexpressing cells; conditions: chemotherapeutic drug alone
[3] = tested on: KB-3-1 parental cell line; assay: MDR reversal study (MTT), parental KB-3-1; format: cell-based; conditions: chemotherapeutic drug alone
[4] = tested on: HEK293/pcDNA3.1 parental cell line; assay: MDR reversal study (MTT), parental HEK293/pcDNA3.1; format: cell-based; conditions: for IC50 / RF: chemotherapeutic drug alone
[5] = tested on: transfected ABCC1-overexpressing cell line HEK293/ABCC1; assay: MDR reversal study (MTT), transfected ABCC1-overexpressing cells; format: cell-based; conditions: chemotherapeutic drug alone
parental cells (KB-3-1) = assay: cells; conditions: Homo sapiens

## N.N.[Cl][Pt][Cl] [Cisplatin]
[1]
  IC50: 2.23 µM
  RF: 1.25
[2]
  RF: ± 0.428 (1.13)
[3]; Table 2
  IC50: 1.79 ± 0.476 µM
  RF: 1.00
[3]; Table 4
  IC50: 1.79 µM
  RF: 1.00
[4]; Table 3
  IC50: 2.21 ± 0.541 µM
  RF: 1.00
[4]; Table 5
  IC50: 2.21 µM
  RF: 1.00
[5]
  IC50: 2.23 µM
  RF: 1.01

## CC(=O)O[C@H]1C(=O)[C@@]2(C)[C@H]([C@H](OC(=O)c3ccccc3)[C@]3(O)C[C@H](OC(=O)[C@H](O)[C@@H](NC(=O)c4ccccc4)c4ccccc4)C(C)=C1C3(C)C)[C@]1(OC(C)=O)CO[C@@H]1C[C@@H]2O [Paclitaxel]
[3]; Table 2
  RF: 1.00
[4]; Table 3
  RF: 1.00

## CN(C)C(=O)CCSC(SCCC(=O)O)c1cccc(/C=C/c2ccc3ccc(Cl)cc3n2)c1 (stereo not shown) [MK571]
[4]; cisplatin + MK571 (5 μM)
  RF of cisplatin: 0.99
[4]; vincristine + MK571 (5 μM)
  RF of vincristine: 1.02

## CC[C@]1(O)C[C@H]2CN(CCc3c([nH]c4ccccc34)[C@@](C(=O)OC)(c3cc4c(cc3OC)N(C=O)[C@H]3[C@@](O)(C(=O)OC)[C@H](OC(C)=O)[C@]5(CC)C=CCN6CC[C@]43[C@@H]65)C2)C1 [Vincristine]
[1]
  RF: 169.05
[3]; Homo sapiens, 72 h, Table 4
  IC50: 0.095 µM
[3]; Table 4
  RF: 1.00
[4]; Homo sapiens, Table 5
  IC50: 0.137 µM
[4]; Table 5
  RF: 1.00
Parental cells (KB-3-1)
  IC50: 0.095 µM
[5]
  RF: 19.79

## COc1cccc2c1C(=O)c1c(O)c3c(c(O)c1C2=O)C[C@@](O)(C(=O)CO)C[C@@H]3O[C@H]1C[C@H](N)[C@H](O)[C@H](C)O1 [Doxorubicin]
[3]; Table 2
  RF: 1.00
